Assay results as given in ChEMBL document CHEMBL1201862, “PubChem BioAssay data set” (2004).
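Exposure lasted 48 hours, with cells grown in 96-well plates and compounds tested at five concentrations. Abbreviation: GI50, concentration required for 50% inhibition of growth.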 Active and inactive are the calls of the source. No stated cut-off is given here; in the data, active = GI50 up to about 1.1 µM and inactive = higher.

Legend:
Test in all cases: NCI-60 cell line screen, 48 h
A549 = test system: A549
CAKI-1 = test system: CAKI-1
COLO 205 = test system: COLO 205
DU-145 = test system: DU-145
HCT-116 = test system: HCT-116
IGROV-1 = test system: IGROV-1
K562 = test system: K562
M14 = test system: M14
MDA-N = test system: MDA-N
Malme-3M = test system: Malme-3M
OVCAR-8 = test system: OVCAR-8
RXF 393 = test system: RXF 393
SF-539 = test system: SF-539
SK-OV-3 = test system: SK-OV-3
T47D = test system: T47D
TK-10 = test system: TK-10
U-251 = test system: U-251
ACHN = test system: ACHN

Row | SMILES | GI50 (A549) | GI50 (CAKI-1) | GI50 (COLO 205) | GI50 (DU-145) | GI50 (HCT-116) | GI50 (IGROV-1) | GI50 (K562) | GI50 (M14) | GI50 (MDA-N) | GI50 (Malme-3M) | GI50 (OVCAR-8) | GI50 (RXF 393) | GI50 (SF-539) | GI50 (SK-OV-3) | GI50 (T47D) | GI50 (TK-10) | GI50 (U-251) | GI50 (ACHN)
1 | COc1ccc(/C=C2\N=C(SC)NC2=O)cc1 | > 100 µM (inactive) | 56 µM (inactive) | 98.6 µM (inactive) | 53.8 µM (inactive) | > 100 µM (inactive) | 56.5 µM (inactive) | > 10 µM (inactive) | > 100 µM (inactive) | 83.6 µM (inactive) | > 100 µM (inactive) | > 100 µM (inactive) | 67.3 µM (inactive) | 80.7 µM (inactive) | > 100 µM (inactive) | 27.8 µM (inactive) | 86.1 µM (inactive) | 90.6 µM (inactive) | –
2 | O=C(C=P(c1ccccc1)(c1ccccc1)c1ccccc1)c1ccccc1-c1ccccc1C(=O)C=P(c1ccccc1)(c1ccccc1)c1ccccc1 | 0.0128 µM (active) | 0.163 µM (active) | 0.0103 µM (active) | 0.0184 µM (active) | 0.0222 µM (active) | < 0.015 µM (active) | < 0.01 µM (active) | 0.0352 µM (active) | 0.0229 µM (active) | < 0.01 µM (active) | < 0.01 µM (active) | 0.0208 µM (active) | 0.0328 µM (active) | 0.0216 µM (active) | < 0.01 µM (active) | < 0.01 µM (active) | 0.0173 µM (active) | 0.0272 µM (active)
3 | N#CC1=C2Sc3ccccc3N2[C@H](c2ccccc2)[C@H]2COC(=O)[C@@H]12 | > 100 µM (inactive) | 17.5 µM (inactive) | > 100 µM (inactive) | > 100 µM (inactive) | > 100 µM (inactive) | – | – | 52.4 µM (inactive) | > 100 µM (inactive) | 16.7 µM (inactive) | > 100 µM (inactive) | 70.3 µM (inactive) | > 100 µM (inactive) | > 100 µM (inactive) | 35.6 µM (inactive) | 38.9 µM (inactive) | 45.2 µM (inactive) | > 100 µM (inactive)
4 | O=C(N[C@@H](c1ccccc1)[C@@H](O)C(=O)OCc1ccc([N+](=O)[O-])cc1)c1ccccc1 | > 100 µM (inactive) | > 100 µM (inactive) | > 100 µM (inactive) | > 100 µM (inactive) | > 100 µM (inactive) | > 100 µM (inactive) | 51.3 µM (inactive) | – | > 100 µM (inactive) | > 100 µM (inactive) | > 100 µM (inactive) | > 100 µM (inactive) | > 100 µM (inactive) | > 100 µM (inactive) | > 100 µM (inactive) | > 100 µM (inactive) | > 100 µM (inactive) | > 100 µM (inactive)
5 | O=S(=O)(/C=C/C=C/[S+]([O-])c1ccccc1)c1ccccc1 (configuration not stated) | > 10 µM (inactive) | 1.84 µM (inactive) | 1.76 µM (inactive) | > 4.42 µM (inactive) | 1.38 µM (inactive) | > 5.41 µM (inactive) | 0.902 µM (active) | 0.685 µM (active) | 2.95 µM (inactive) | 1.98 µM (inactive) | 1.7 µM (inactive) | 1.58 µM (inactive) | 8.09 µM (inactive) | > 10 µM (inactive) | 2.02 µM (inactive) | 2.09 µM (inactive) | > 10 µM (inactive) | 2.34 µM (inactive)
6 | CCCCOC(=O)C1CN2C(=NC1(C(F)(F)F)C(F)(F)F)Sc1ccccc12 (configuration not stated) | 40.5 µM (inactive) | > 100 µM (inactive) | 31.8 µM (inactive) | 67.1 µM (inactive) | 33 µM (inactive) | 11 µM (inactive) | 12.2 µM (inactive) | 44.1 µM (inactive) | 60.3 µM (inactive) | 53.1 µM (inactive) | 43.6 µM (inactive) | 24.1 µM (inactive) | 44.1 µM (inactive) | 78.5 µM (inactive) | 16.8 µM (inactive) | 30.6 µM (inactive) | 41.4 µM (inactive) | 30.3 µM (inactive)
7 | CC(C(O)Cc1ccccc1)N(C)/N=N/c1ccc([N+](=O)[O-])cc1 (configuration not stated) | 23.1 µM (inactive) | 21.9 µM (inactive) | 21.2 µM (inactive) | 27 µM (inactive) | 16.4 µM (inactive) | 19.4 µM (inactive) | 27.2 µM (inactive) | 16.8 µM (inactive) | 19.3 µM (inactive) | 22.2 µM (inactive) | 17.6 µM (inactive) | 1.19 µM (inactive) | – | 22.3 µM (inactive) | 23.8 µM (inactive) | 22.5 µM (inactive) | 17.7 µM (inactive) | 25.6 µM (inactive)
8 | N#CC1=C(S)N(C2OC(CO)C(O)C(O)C2O)C(c2ccccc2)=CC1c1ccco1 (configuration not stated) | 46.1 µM (inactive) | 38.8 µM (inactive) | > 10 µM (inactive) | > 100 µM (inactive) | 21.3 µM (inactive) | > 100 µM (inactive) | 42.7 µM (inactive) | 50.5 µM (inactive) | 93.3 µM (inactive) | 81.7 µM (inactive) | 40.4 µM (inactive) | 44 µM (inactive) | 35.2 µM (inactive) | – | 4.36 µM (inactive) | 44.1 µM (inactive) | 19.8 µM (inactive) | > 10 µM (inactive)
9 | Cn1c2ccccc2c2c(=S)c3ccccc3ccc21 | 71.4 µM (inactive) | > 100 µM (inactive) | 67.3 µM (inactive) | 88.9 µM (inactive) | 59 µM (inactive) | 81.8 µM (inactive) | 43.5 µM (inactive) | > 100 µM (inactive) | > 100 µM (inactive) | > 100 µM (inactive) | 56.5 µM (inactive) | > 100 µM (inactive) | – | > 100 µM (inactive) | 20.7 µM (inactive) | > 100 µM (inactive) | 52.8 µM (inactive) | > 100 µM (inactive)
10 | COc1cc(/C=C/C2=NN(c3cccc(S(=O)(=O)O)c3)C3(C2)SCC(=O)N3c2nc3ccccc3s2)cc(OC)c1OC (configuration not stated) | 56.1 µM (inactive) | 55.2 µM (inactive) | > 100 µM (inactive) | 29.4 µM (inactive) | 50.5 µM (inactive) | 43.2 µM (inactive) | 41.1 µM (inactive) | 74.8 µM (inactive) | 39.4 µM (inactive) | > 100 µM (inactive) | 44.1 µM (inactive) | 56.4 µM (inactive) | 46 µM (inactive) | – | 15 µM (inactive) | 29.9 µM (inactive) | 33 µM (inactive) | 64.3 µM (inactive)
11 | COc1ccc(/C=C2\CCC(CNc3cc(C)on3)C2=O)cc1 (configuration not stated) | > 88.7 µM (inactive) | > 100 µM (inactive) | > 100 µM (inactive) | > 83.6 µM (inactive) | > 100 µM (inactive) | 98.2 µM (inactive) | > 100 µM (inactive) | > 100 µM (inactive) | > 100 µM (inactive) | > 100 µM (inactive) | > 100 µM (inactive) | > 21.5 µM (inactive) | > 100 µM (inactive) | > 92.5 µM (inactive) | 33 µM (inactive) | > 84.9 µM (inactive) | > 60.1 µM (inactive) | > 100 µM (inactive)
12 | CC(=O)OCC1OC(n2c3c(cc(C#N)c2=O)CCCCCC3)C(OC(C)=O)C(OC(C)=O)C1OC(C)=O (configuration not stated) | > 100 µM (inactive) | > 100 µM (inactive) | > 100 µM (inactive) | > 100 µM (inactive) | > 100 µM (inactive) | > 100 µM (inactive) | > 100 µM (inactive) | > 100 µM (inactive) | > 100 µM (inactive) | > 100 µM (inactive) | > 100 µM (inactive) | > 100 µM (inactive) | > 100 µM (inactive) | – | 22.7 µM (inactive) | > 100 µM (inactive) | > 100 µM (inactive) | > 100 µM (inactive)
13 | C=C(C)CCC1C=[N+]([O-])OC(C)(C)C1(C)C (configuration not stated) | 49.3 µM (inactive) | > 100 µM (inactive) | > 100 µM (inactive) | > 100 µM (inactive) | > 100 µM (inactive) | > 100 µM (inactive) | > 100 µM (inactive) | > 100 µM (inactive) | > 100 µM (inactive) | – | > 100 µM (inactive) | > 100 µM (inactive) | > 100 µM (inactive) | > 100 µM (inactive) | > 100 µM (inactive) | > 100 µM (inactive) | > 100 µM (inactive) | > 100 µM (inactive)
14 | CC(=O)N1N=C(c2ccc3ccccc3c2O)CC1C(=O)c1ccco1 (configuration not stated) | 27.9 µM (inactive) | 44.1 µM (inactive) | 25.8 µM (inactive) | 47.9 µM (inactive) | 28.6 µM (inactive) | 12.7 µM (inactive) | 11.6 µM (inactive) | 19.3 µM (inactive) | 20.6 µM (inactive) | 23.2 µM (inactive) | 25.5 µM (inactive) | 32.4 µM (inactive) | 26.1 µM (inactive) | 36.1 µM (inactive) | 40.6 µM (inactive) | 30.3 µM (inactive) | 27.7 µM (inactive) | 19.2 µM (inactive)
15 | Cc1ccc(CNc2ccc(Br)cc2)cc1 | 23.8 µM (inactive) | 31.6 µM (inactive) | 16.5 µM (inactive) | 90.4 µM (inactive) | 26.7 µM (inactive) | – | 22.9 µM (inactive) | 59.6 µM (inactive) | 25.4 µM (inactive) | 21.5 µM (inactive) | 16.3 µM (inactive) | 23.1 µM (inactive) | 36.8 µM (inactive) | 53.8 µM (inactive) | 29.5 µM (inactive) | 40 µM (inactive) | 28.1 µM (inactive) | 11.4 µM (inactive)
16 | Nc1ccccc1.O=C(O)C(C(F)(F)F)C(F)(F)F | > 100 µM (inactive) | 34 µM (inactive) | > 100 µM (inactive) | 99.5 µM (inactive) | > 100 µM (inactive) | > 100 µM (inactive) | > 100 µM (inactive) | > 100 µM (inactive) | > 100 µM (inactive) | > 100 µM (inactive) | > 100 µM (inactive) | > 100 µM (inactive) | > 100 µM (inactive) | > 100 µM (inactive) | > 100 µM (inactive) | > 100 µM (inactive) | > 100 µM (inactive) | > 100 µM (inactive)
